Results reported in BindingDB's records for patent US12435087 (Cellarity, 2025).

The molecules below were run against T1, DCN1-like protein 1 (Homo sapiens, UniProt Q96GG9) (assay: TR-FRET Assay (1 hour)).
Method: (§1) The DCN1 protein was biotinylated (EZ sulfo-NHS-LC-biotin; Thermofisher) for labeling with streptavidin terbium (Tb) cryptate in the reaction. The probe was changed to a non-covalent DCN1 inhibitor labeled with carboxyfluorescein (FAM; Zhou et al., Nat Commun. 2017; 8: 1150. Doi: 10.1038/s41467-017-01243-7). Buffer conditions were modified to enhance protein stability by exchanging Tween20 for TritonX and increasing NaCl to 200 mM. The compounds were screened against 5 nM DCN1 and 20 nM FAM-probe or 0.31 nM DCN1 and 900 nM total probe (100 nM FAM-labeled plus 800 nM unlabeled). The TR-FRET ratio between Tb-DCN1 and the FAM-labeled probe was measured in a 384-well opti-plate (Perkin Elmer) using a plate reader (BMG) at 1 hour after treatment with compound (final DMSO concentration of 0.1%).

T1 sequence (Q96GG9 whole entry): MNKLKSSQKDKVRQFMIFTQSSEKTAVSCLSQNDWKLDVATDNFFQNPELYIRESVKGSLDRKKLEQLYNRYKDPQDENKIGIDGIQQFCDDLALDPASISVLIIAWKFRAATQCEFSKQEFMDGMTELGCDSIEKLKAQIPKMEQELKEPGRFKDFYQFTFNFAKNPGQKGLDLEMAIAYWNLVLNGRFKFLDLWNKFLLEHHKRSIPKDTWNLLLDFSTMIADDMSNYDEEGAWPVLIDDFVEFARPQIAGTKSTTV

Compound | IC50 [nM]
C=CS(=O)(=O)Nc1cccc([C@H]2c3c(C)nn(-c4ccccc4)c3N(CC)C(=O)[C@@H]2NC(=O)c2cccc(C(F)(F)F)c2)c1 (racemic) [US12435087, Compound I-5] | < 200
C=C(CN1CCOCC1)C(=O)NCc1cccc([C@@H]2c3cnn(-c4ccccc4)c3N(CC)C(=O)[C@H]2NC(=O)c2ccn(C3CC3)n2)c1 [US12435087, Compound I-280] | < 200
CCN1C(=O)[C@@H](NC(=O)c2nccc(C(F)(F)F)n2)[C@H](c2cccc(C(=O)N3C[C@H](F)C[C@H]3C#N)c2)c2cnn(-c3ccccc3)c21 [US12435087, Compound I-350] | 1000 to 3000
C=C(CN(C)C1COC1)C(=O)NCc1cccc([C@@H]2c3cnn(-c4ccccc4)c3N(CC)C(=O)[C@H]2NC(=O)c2ccn(C(F)(F)F)n2)c1 [US12435087, Compound I-378] | < 200

Each molecule was assayed against T1, DCN1-like protein 1 (assay: TR-FRET Assay (24 hour)).
Method: as §1, with “24 hrs” for “1 hour”

Compound | IC50 [nM]
CCN1C(=O)[C@H](NC(=O)c2cccc(C(F)(F)F)c2)[C@@H](c2cccc(NC(=O)/C=C/CN(C)C)c2)c2c(C)nn(-c3ccccc3)c21 (racemic) [US12435087, Compound I-38] | < 200
C=C(CN(C)C1COC1)C(=O)N(C)Cc1cccc([C@@H]2c3cnn(-c4ccccc4)c3N(CC)C(=O)[C@H]2NC(=O)c2ccn(C3CC3)n2)c1 [US12435087, Compound I-239] | < 200
C=C(CN(C)C1COC1)C(=O)N(C)Cc1cccc([C@@H]2c3cnn(-c4ccccc4)c3N(CC)C(=O)[C@H]2NC(=O)c2nccc(C(F)(F)F)n2)c1 [US12435087, Compound I-254] | < 200
C=C(CN1CC2CC(C1)O2)C(=O)N(C)Cc1cccc([C@@H]2c3cnn(-c4ccccc4)c3N(CC)C(=O)[C@H]2NC(=O)c2ccn(C3CC3)n2)c1 [US12435087, Compound I-258] | < 200
